Measured values taken from PMC10674565 (Pharmaceuticals, 2023).

Molecular target: T1, SLCO1B1 (Homo sapiens, UniProt Q9Y6L6)
T1 sequence (Q9Y6L6 1-691): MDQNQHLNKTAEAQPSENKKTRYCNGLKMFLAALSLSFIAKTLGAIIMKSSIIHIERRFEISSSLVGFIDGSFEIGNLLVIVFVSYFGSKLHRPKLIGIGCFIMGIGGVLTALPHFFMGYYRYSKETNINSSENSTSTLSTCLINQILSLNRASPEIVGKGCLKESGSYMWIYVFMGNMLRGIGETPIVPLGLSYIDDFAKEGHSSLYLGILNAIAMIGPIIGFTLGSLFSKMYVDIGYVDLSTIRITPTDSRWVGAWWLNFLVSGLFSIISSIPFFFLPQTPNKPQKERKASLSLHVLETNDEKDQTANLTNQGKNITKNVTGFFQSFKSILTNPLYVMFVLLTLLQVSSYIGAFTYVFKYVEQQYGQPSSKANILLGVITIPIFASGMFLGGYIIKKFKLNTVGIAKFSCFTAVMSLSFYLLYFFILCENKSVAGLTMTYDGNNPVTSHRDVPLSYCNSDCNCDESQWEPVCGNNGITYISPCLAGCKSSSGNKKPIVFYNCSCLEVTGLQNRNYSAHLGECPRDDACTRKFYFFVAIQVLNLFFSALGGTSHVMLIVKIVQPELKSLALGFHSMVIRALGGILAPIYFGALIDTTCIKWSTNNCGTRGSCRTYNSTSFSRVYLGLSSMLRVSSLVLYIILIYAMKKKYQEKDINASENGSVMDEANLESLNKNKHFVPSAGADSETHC
Test: Inhibition of SLCO1B1-mediated uptake of atorvastatin in HEK293-SLCO1B1 cells
Assay type: in vitro ADME
Design: The SLCO1B1 gene was obtained via synthesis and was cloned into the pEGFP-N1 vector; expressed in transfected cells; host or cells: HEK293
Procedure: As a positive inhibition control, rifampicin at similar concentrations was used. Three independent experiments were performed. […] Proteins were precipitated by adding acetonitrile in a 1:1 ratio to the sample. […] The mobile phase gradient program was as follows: 0-0.6 min-35% A and 65% B, 0.6-5.0 min-5% A and 95% B, 5.0-8.0 min-35% A and 65% B. The flow rate and the column temperature were maintained at 300 μL/min and 35 °C. Aliquots (2 μL) of the extracted samples were injected.

[1] = human, HEK293-SLCO1B1 cells, pH 7.4, probe atorvastatin 1 µM

`CCc1nc(C)ccc1O.O=C(O)CCC(=O)O` [EMHPS, 2-Ethyl-6-methyl-3-hydroxypyridine succinate] showed an IC50 of 12.1 ± 7.64 µM, an inhibition at 100 µM [1] of 64.7% and an inhibition at 500 µM [1] of 90.6%.
